From patent publication US8722894B2, “1,3-disubstituted-4-phenyl-1H-pyridin-2-ones” (Janssen Pharmaceuticals, Inc., priority 2007, dated 2014)

Legend:
[1] = target: T1, human mGluR2 receptor (Homo sapiens, UniProt Q14416); assay: [35S]GTPγS binding assay (GTPγS-PAM), membranes from cells transfected with the human mGluR2 receptor; assay type: biochemical; conditions: in presence of mGluR2 agonist glutamate at a predetermined EC25 concentration; CHO-cell membranes; averages of duplicate values of 11-concentration response curves; pEC50 = -logEC50; read-out: GTPgS - hR2 PAM pEC50 (converted)
T1 construct: expressed in transfected cells; host or cells: CHO cells
Method: The [^35S]GTPγS binding assay is a functional membrane-based assay used to study G-protein coupled receptor (GPCR) function whereby incorporation of a non-hydrolysable form of GTP, [^35S]GTPγS (guanosine 5′-triphosphate, labelled with […] ^35S), is measured. The G-protein α subunit catalyzes the exchange of guanosine 5′-diphosphate (GDP) by guanosine triphosphate (GTP) and on activation of the GPCR by an agonist, [^35S]GTPγS, becomes incorporated and cannot be cleaved to continue the exchange cycle (Harper (1998) Current Protocols in Pharmacology 2.6.1-10, John Wiley & Sons, Inc.). […] Here we describe the use of the [^35S]GTPγS binding assay using membranes from cells transfected with the human mGluR2 receptor and adapted from Schaffhauser et al ((2003) Molecular Pharmacology 4:798-810) for the detection of the positive allosteric modulation (PAM) properties of the compounds of this invention.
CHO-cells were cultured to pre-confluence and stimulated with 5 mM butyrate for 24 hours, prior to washing in PBS, and then collection by scraping in homogenisation buffer (50 mM Tris-HCl buffer, pH 7.4, 4° C.). Cell lysates were homogenized briefly (15 s) using an ultra-turrax homogenizer. The homogenate was centrifuged at 23 500×g for 10 minutes and the supernatant discarded. The pellet was resuspended in 5 mM Tris-HCl, pH 7.4 and centrifuged again (30 000×g, 20 min, 4° C.). The final pellet was resuspended in 50 mM HEPES, pH 7.4 and stored at −80° C. in appropriate aliquots before use. Protein concentration was determined by the Bradford method (Bio-Rad, USA) with bovine serum albumin as standard.
Measurement of mGluR2 positive allosteric modulatory activity of test compounds in membranes containing human mGluR2 was performed using frozen membranes that were thawed and briefly homogenised prior to pre-incubation in 96-well microplates (15 μg/assay well, 30 minutes, 30° C.) in assay buffer (50 mM HEPES pH 7.4, 100 mM NaCl, 3 mM MgCl2, 50 μM GDP, 10 μg/ml saponin,) with increasing concentrations of positive allosteric modulator (from 0.3 nM to 50 μM) and either a minimal pre-determined concentration of glutamate (PAM assay), or no added glutamate. For the PAM assay, membranes were pre-incubated with glutamate at EC25 concentration, i.e. a concentration that gives 25% of the maximal response glutamate, and is in accordance to published data (Pin et al. (1999) Eur. J. Pharmacol. 375:277-294). […] Filters were then air-dried, and 40 μl of liquid scintillation cocktail (Microscint-O) was added to each well, and membrane-bound [^35S]GTPγS was measured in a 96-well scintillation plate reader (Top-Count, Perkin-Elmer, USA). Non-specific [^35S]GTPγS binding is determined in the presence of cold 10 μM GTP. […]

T1 sequence (Q14416 19-872): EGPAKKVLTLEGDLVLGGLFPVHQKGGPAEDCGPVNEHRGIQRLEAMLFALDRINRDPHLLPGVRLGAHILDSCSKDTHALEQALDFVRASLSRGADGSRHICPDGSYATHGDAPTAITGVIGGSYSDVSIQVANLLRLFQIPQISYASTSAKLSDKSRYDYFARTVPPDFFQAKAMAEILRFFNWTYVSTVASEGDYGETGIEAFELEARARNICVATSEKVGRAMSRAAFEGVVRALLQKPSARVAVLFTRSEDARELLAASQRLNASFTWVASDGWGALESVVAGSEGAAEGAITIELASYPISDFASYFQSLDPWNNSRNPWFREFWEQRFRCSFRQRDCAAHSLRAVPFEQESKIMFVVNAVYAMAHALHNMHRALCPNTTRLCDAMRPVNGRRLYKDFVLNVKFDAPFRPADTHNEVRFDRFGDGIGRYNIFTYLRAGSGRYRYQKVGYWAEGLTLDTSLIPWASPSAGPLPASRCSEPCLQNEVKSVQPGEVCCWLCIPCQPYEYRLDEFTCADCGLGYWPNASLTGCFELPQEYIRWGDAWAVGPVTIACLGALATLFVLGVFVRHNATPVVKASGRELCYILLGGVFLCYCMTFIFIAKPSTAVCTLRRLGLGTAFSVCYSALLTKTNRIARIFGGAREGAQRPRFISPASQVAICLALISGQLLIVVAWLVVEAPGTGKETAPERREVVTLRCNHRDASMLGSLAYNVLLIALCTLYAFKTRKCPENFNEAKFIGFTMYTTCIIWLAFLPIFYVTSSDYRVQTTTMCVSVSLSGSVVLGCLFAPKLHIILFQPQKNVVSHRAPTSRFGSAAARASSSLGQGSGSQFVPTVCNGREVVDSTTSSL

With `CCCCn1ccc(-c2ccc(NC3CCC(C)(O)CC3)c(Cl)c2)c(Cl)c1=O` (centres unmarked) [Compound 7] the melting point was 227.4 °C and the EC50 [1] was 39.8 nM.
For `O=c1c(Cl)c(-c2ccc(OC3CCOCC3)c(Cl)c2)ccn1CCC1CC1` [Compound 4], the melting point was 154 °C and the EC50 [1] was 275 nM.
In the case of `O=c1c(Cl)c(-c2ccc(NC3CCOCC3)c(C(F)(F)F)c2)ccn1CC1CC1` [Compound 5], the melting point is reported as 173 °C and the EC50 [1] is reported as 813 nM.
For `O=c1c(Cl)c(-c2ccc(NC3CCOCC3)c(Cl)c2)ccn1CC1CC1` [Compound 6], the melting point was 231 °C and the EC50 [1] was 575 nM.
